IC50, inhibition and DC50 data for nine compounds are collected here from patent publication US20240174637A1, “DEGRADERS OF GRK2 AND USES THEREOF” (Sonata Therapeutics, Inc., priority 2021, published 2024).

In one test the test system is PAXF1657 EV. Put plainly: 7-day cellular proliferation assay (CellTiter-Glo), PAXF1657 EV. The class given is cell-based. The note with it: proliferation, read-out: GeoMean IC50 (UM) PAXF1657 EV. The gist of the method:
(§1)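 500 cells/well, RPMI1640 + 10% H.I. FBS, adhered overnight at 37° C. Compound 10-pt dilution, 30 μM-0.0002 μM final, 0.3% DMSO. 3 d, media + compound replaced, further 4 d. Viability by CellTiter-Glo; untreated plates read at time of dosing.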

Test [1] has as its target T1, GRK2 (Homo sapiens, UniProt P25098).
T1 sequence (P25098 1-689): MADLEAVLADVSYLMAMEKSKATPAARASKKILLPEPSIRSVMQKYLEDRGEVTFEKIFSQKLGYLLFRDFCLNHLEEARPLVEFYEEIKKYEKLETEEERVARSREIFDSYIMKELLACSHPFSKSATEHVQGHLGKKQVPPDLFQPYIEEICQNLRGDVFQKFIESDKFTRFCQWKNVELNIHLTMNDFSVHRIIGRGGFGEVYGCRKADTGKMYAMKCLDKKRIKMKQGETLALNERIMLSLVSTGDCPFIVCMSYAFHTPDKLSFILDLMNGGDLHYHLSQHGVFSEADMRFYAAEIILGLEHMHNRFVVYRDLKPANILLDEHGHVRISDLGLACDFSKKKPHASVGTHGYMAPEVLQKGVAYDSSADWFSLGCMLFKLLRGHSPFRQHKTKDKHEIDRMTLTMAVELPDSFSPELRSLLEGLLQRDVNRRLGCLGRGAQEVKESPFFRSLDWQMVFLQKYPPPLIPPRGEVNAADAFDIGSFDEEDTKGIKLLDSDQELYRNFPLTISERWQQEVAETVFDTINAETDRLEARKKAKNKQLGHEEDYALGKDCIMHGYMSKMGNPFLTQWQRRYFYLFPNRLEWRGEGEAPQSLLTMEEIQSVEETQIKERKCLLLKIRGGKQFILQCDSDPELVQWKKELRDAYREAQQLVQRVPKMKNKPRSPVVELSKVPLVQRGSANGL
Put plainly: GRK2 Inhibition Assay (TR-FRET, Example 1). The class given is biochemical. The note with it: Table 4; Example 1 assay; read-out: Enzymatic GRK2 IC50: Av IC50 GRK2. A digest of the protocol:
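TR-FRET phosphorylation readout: Eu anti-TopoIIα antibody with EDTA added after a 90 min RT kinase reaction of 1 nM GRK2, 7 μM ATP and 50 nM ULight-TopoIIα. Compounds were pre-incubated with enzyme 30 min at room temperature beforehand.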

The next test has as its system PAXF1657 KO Clone #4. Description: 7-day cellular proliferation assay (CellTiter-Glo), PAXF1657 KO Clone #4. The following applies: proliferation, read-out: GeoMean IC50 (uM) PAXF1657 KO Clone #4. It counts as cell-based. A digest of the protocol: as §1
Test [2] concerns the target T1, GRK2. Description: GRK2 Degradation Assay and Western Blot in PAXF1657 cells. The class given is cell-based. Details: endogenous in cells; host or cells: PAXF1657. The note with it: for inhibition at 0.3 µM: Conc 0.3 uM; for inhibition at 0.3 µM / inhibition at 1 µM / inhibition at 3 µM: read-out: Degradation Assay - 3 point: Degradation (%); for inhibition at 1 µM: Conc 1 uM; for inhibition at 3 µM: Conc 3 uM; for DC50: PAXF1657, 24 h, read-out: Degradation Assay - Full Dose Response: IC50 (uM) [cell line: PAXF1657, time point: 24 h]. A digest of the protocol:
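GRK2 degradation judged by immunoblot: NP40 lysates separated by SDS-PAGE and probed for GRK2 and β-actin, with HRP/ECL detection. Lysates came from PAXF1657 cells exposed to 0–10 μM compound for 6–24 h after reaching 70% confluency.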

SMILES strings stand for the structures. Counter-ions that a name gives are not always drawn.

As for `C[C@@H](NC(=O)c1cccc(NCc2nnc(-c3ccncn3)n2C)c1)c1cccc(OCCCCN2CCN(c3ccc4c(c3)CN(C3CCC(=O)NC3=O)C4=O)CC2)c1` (stereo partly drawn) [Compound D129, N-((1R)-1-(3-(4-(4-(2-(2,6-dioxopiperidin-3-yl)-1-oxoisoindolin-5-yl)piperazin-1-yl)butoxy)phenyl)ethyl)-3-((4-methyl-5-(pyrimidin-4-yl)-4H-1,2,4-triazol-3-yl)methylamino)benzamide], the IC50 with PAXF1657 EV worked out at 100 nM. For the same compound, at GRK2 [1], the IC50 worked out at 27.9 nM. Moreover, the IC50 with PAXF1657 KO Clone #4 was more than 30 µM. At GRK2 [2], the inhibition at 0.3 µM was determined as 79.8%, the inhibition at 1 µM came to 77.5%, the inhibition at 3 µM was 70.6% and the DC50 was determined as 0.08 µM.
As for `C[C@@H](NC(=O)c1cccc(NCc2nnc(-c3ccncn3)n2C)c1)c1cccc(OCCCCCCOCCOCCOCCC(=O)N2CCN(c3cc4c(cc3F)C(=O)N(C3CCC(=O)NC3=O)C4=O)CC2)c1` (stereo partly drawn) [Compound D130, N-((1R)-1-(3-(6-(2-(2-(3-(4-(2-(2,6-dioxopiperidin-3-yl)-6-fluoro-1,3-dioxoisoindolin-5-yl)piperazin-1-yl)-3-oxopropoxy)ethoxy)ethoxy)hexyloxy)phenyl)ethyl)-3-((4-methyl-5-(pyrimidin-4-yl)-4H-1,2,4-triazol-3-yl)methylamino)benzamide], in the test with PAXF1657 EV, the IC50 is 880 nM. In addition, at GRK2 [1], the IC50 was found to be 17.9 nM. Besides, in the test with PAXF1657 KO Clone #4, the IC50 was found to be 24.7 µM. On GRK2 [2], the inhibition at 0.3 µM was found to be 78.7%, the inhibition at 1 µM turned out to be 84.7%, the inhibition at 3 µM was 90.7% and the DC50 stood at 0.29 µM.
As to `C[C@@H](NC(=O)c1cccc(NCc2nnc(-c3ccncn3)n2C)c1)c1cccc(OCCCCCCOCCOCCOCCC(=O)N2CCN(c3ccc4c(c3)CN(C3CCC(=O)NC3=O)C4=O)CC2)c1` (stereo partly drawn) [Compound D131, N-((1R)-1-(3-(6-(2-(2-(3-(4-(2-(2,6-dioxopiperidin-3-yl)-1-oxoisoindolin-5-yl)piperazin-1-yl)-3-oxopropoxy)ethoxy)ethoxy)hexyloxy)phenyl)ethyl)-3-((4-methyl-5-(pyrimidin-4-yl)-4H-1,2,4-triazol-3-yl)methylamino)benzamide], in the test with PAXF1657 EV, the half-maximal inhibitory concentration (IC50) was found to be 220 nM. The IC50 at GRK2 [1] turned out to be 26.6 nM. The IC50 with PAXF1657 KO Clone #4 is more than 30 µM. Also, on GRK2 [2], the inhibition at 0.3 µM was 17.5%, the inhibition at 1 µM turned out to be 68.7%, the inhibition at 3 µM turned out to be 89.2% and the DC50 is 0.24 µM.
As for `C[C@@H](NC(=O)c1cccc(NCc2nnc(-c3ccncn3)n2C)c1)c1cccc(OCCCCCCOCC(=O)N2CCN(c3ccc4c(c3)CN(C3CCC(=O)NC3=O)C4=O)CC2)c1` (stereo partly drawn) [Compound D132, N-((1R)-1-(3-(6-(2-(4-(2-(2,6-dioxopiperidin-3-yl)-1-oxoisoindolin-5-yl)piperazin-1-yl)-2-oxoethoxy)hexyloxy)phenyl)ethyl)-3-((4-methyl-5-(pyrimidin-4-yl)-4H-1,2,4-triazol-3-yl)methylamino)benzamide], the IC50 in the test with PAXF1657 EV came out at 40 nM. Besides, the IC50 on GRK2 [1] came out at 16.3 nM. Further, the IC50 in the test with PAXF1657 KO Clone #4 was more than 30 µM. At GRK2 [2], the inhibition at 0.3 µM came to 87.4%, the inhibition at 1 µM worked out at 92.4%, the inhibition at 3 µM was determined as 91.5% and the DC50 amounted to 0.12 µM.
On to `C[C@@H](NC(=O)c1cccc(NCc2nnc(-c3ccncn3)n2C)c1)c1cccc(OCCCCCCOCC(=O)N2CCN(c3cc4c(cc3F)C(=O)N(C3CCC(=O)NC3=O)C4=O)CC2)c1` (stereo partly drawn) [Compound D133, N-((1R)-1-(3-(6-(2-(4-(2-(2,6-dioxopiperidin-3-yl)-6-fluoro-1,3-dioxoisoindolin-5-yl)piperazin-1-yl)-2-oxoethoxy)hexyloxy)phenyl)ethyl)-3-((4-methyl-5-(pyrimidin-4-yl)-4H-1,2,4-triazol-3-yl)methylamino)benzamide], for which the IC50 in the test with PAXF1657 EV stood at 710 nM. Also, at GRK2 [1], the IC50 was 9.05 nM. For the same compound, the IC50 in the test on PAXF1657 KO Clone #4 is more than 30 µM. For the same compound, at GRK2 [2], the inhibition at 0.3 µM came to 57.7%, the inhibition at 1 µM is 82.4% and the inhibition at 3 µM is 86.7%.
For `C[C@@H](NC(=O)c1cccc(NCc2nnc(-c3ccncn3)n2C)c1)c1ccc(OCCCCCCOCCOCCOCCC(=O)N2CCN(c3cc4c(cc3F)C(=O)N(C3CCC(=O)NC3=O)C4=O)CC2)cc1` (stereo partly drawn) [Compound D137, N-((1R)-1-(4-(6-(2-(2-(3-(4-(2-(2,6-dioxopiperidin-3-yl)-6-fluoro-1,3-dioxoisoindolin-5-yl)piperazin-1-yl)-3-oxopropoxy)ethoxy)ethoxy)hexyloxy)phenyl)ethyl)-3-((4-methyl-5-(pyrimidin-4-yl)-4H-1,2,4-triazol-3-yl)methylamino)benzamide], the IC50 with PAXF1657 EV is 140 nM. On GRK2 [1], the IC50 amounted to 12.5 nM. Further, the IC50 with PAXF1657 KO Clone #4 is 22.8 µM. For the same compound, on GRK2 [2], the inhibition at 0.3 µM worked out at 71.2%, the inhibition at 1 µM came out at 79.2% and the inhibition at 3 µM was determined as 80.4%.
On to `C[C@@H](NC(=O)c1cccc(NCc2nnc(-c3ccncn3)n2C)c1)c1cccc(OCCCCCCOCCOCC(=O)N2CCN(c3ccc4c(c3)CN(C3CCC(=O)NC3=O)C4=O)CC2)c1` (stereo partly drawn) [Compound D138, N-((1R)-1-(3-(6-(2-(2-(4-(2-(2,6-dioxopiperidin-3-yl)-1-oxoisoindolin-5-yl)piperazin-1-yl)-2-oxoethoxy)ethoxy)hexyloxy)phenyl)ethyl)-3-((4-methyl-5-(pyrimidin-4-yl)-4H-1,2,4-triazol-3-yl)methylamino)benzamide hydrochloride], for which, in the test with PAXF1657 EV, the IC50 was determined as 660 nM. For the same compound, on GRK2 [1], the IC50 was 20.2 nM. For the same compound, the IC50 in the test with PAXF1657 KO Clone #4 was more than 30 µM. Also, on GRK2 [2], the inhibition at 0.3 µM amounted to 85%, the inhibition at 1 µM is 92%, the inhibition at 3 µM came out at 95% and the DC50 turned out to be 0.137 µM.
For `C[C@@H](NC(=O)c1cccc(NCc2nnc(-c3ccncn3)n2C)c1)c1cccc(OCCCCCCOCCOCC(=O)N2CCN(c3cc4c(cc3F)C(=O)N(C3CCC(=O)NC3=O)C4=O)CC2)c1` (stereo partly drawn) [Compound D139, N-((1R)-1-(3-(6-(2-(2-(4-(2-(2,6-dioxopiperidin-3-yl)-6-fluoro-1,3-dioxoisoindolin-5-yl)piperazin-1-yl)-2-oxoethoxy)ethoxy)hexyloxy)phenyl)ethyl)-3-((4-methyl-5-(pyrimidin-4-yl)-4H-1,2,4-triazol-3-yl)methylamino)benzamide], the IC50 in the test with PAXF1657 EV stood at 200 nM. Further, the IC50 at GRK2 [1] stood at 13.6 nM. Moreover, the IC50 in the test on PAXF1657 KO Clone #4 stood at 26.6 µM. Further, on GRK2 [2], the inhibition at 0.3 µM worked out at 86%, the inhibition at 1 µM amounted to 92%, the inhibition at 3 µM was determined as 95% and the DC50 is 0.23 µM.
Regarding `C[C@@H](NC(=O)c1cccc(NCc2nnc(-c3ccncn3)n2C)c1)c1cccc(OCCCCCCOCCOCCN2CCN(c3cc4c(cc3F)C(=O)N(C3CCC(=O)NC3=O)C4=O)CC2)c1` (stereo partly drawn) [Compound D140, N-((1R)-1-(3-(6-(2-(2-(4-(2-(2,6-dioxopiperidin-3-yl)-6-fluoro-1,3-dioxoisoindolin-5-yl)piperazin-1-yl)ethoxy)ethoxy)hexyloxy)phenyl)ethyl)-3-((4-methyl-5-(pyrimidin-4-yl)-4H-1,2,4-triazol-3-yl)methylamino)benzamide], the IC50 with PAXF1657 EV stood at 780 nM. The IC50 at GRK2 [1] came out at 20.9 nM. Further, the IC50 in the test on PAXF1657 KO Clone #4 is 19.9 µM. Further, at GRK2 [2], the inhibition at 0.3 µM worked out at 88%, the inhibition at 1 µM worked out at 92%, the inhibition at 3 µM is 93% and the DC50 turned out to be 0.12 µM.
